A word on the melting point: it is the temperature of the solid-liquid transition.

The source of these data is a melting point compilation (Tetko et al.; mined from patent text by program, amines drawn as free bases though some values may be those of a salt).

In the case of `COc1cc2c(cc1OC)CCCC(C(=O)N1CCNCC1)=C2`, the melting point lay in the range of 137 to 138 °C. `CCn1c(=O)c2c(nc(/C=C/c3ccc(OCC(=O)O)cc3)n2C)n(CC)c1=O` had a melting point of 268 to 269 °C. `CC1(C)CCC(C)(C)c2cc(-c3ccc4cc(C(=O)O)cc(O)c4c3)ccc21` gave a melting point of 299 °C. Take `CCOC(=O)c1cn(C2CC2)c2cc(C3CCN(C(C)=O)CC3)c(F)cc2c1=O`: the melting point lay in the range of 195 to 201 °C. Compound `Clc1ccc(C2=NNCC2c2ccccc2)cc1` (stereo not given) yielded a melting point of 156 to 162 °C.

`O=C(NCCNCC(O)COc1ccc(O)cc1F)C1CCOCC1` (stereo not given) gave a melting point of 101 to 104 °C.

`CCCCc1nc2c(N)nc(C)c(C)c2n1CC(C)(C)NC(=O)c1ccccc1` displayed a melting point of 150 to 152 °C. `CC(C)C(=N)Nc1cc(F)ccc1N1CCOCC1` showed a melting point of 142 °C. Next, `Cc1cnc(-c2cc(=S)ss2)cn1`: 192 °C.

As to `COC(=O)c1ncc(C(=O)NS(=O)(=O)c2ccccc2)cc1OC`, the melting point lay within 160 to 163 °C.

Turning to `N#Cc1cc(-c2nccs2)[nH]c1C(CC1CCOCC1)c1ccc(S(=O)(=O)C2CC2)cc1` (stereo not given), the melting point lay in the range of 114 to 116 °C. Consider `CC(C)Cn1cnc2c(N)nc3ccc(OCc4ccccc4)cc3c21`, for which the melting point was in the range of 214 to 216 °C. Compound `CC(C(=O)Nc1ccc(C(=O)O)cc1)c1ccc2c(c1)C(C)(C)CCC2(C)C` (stereo not given) displayed a melting point of 195 to 196 °C.

For the compound `O=c1[nH]c2cccc(OCCNCc3ccccc3)c2[nH]1`, the melting point was in the range of 132 to 135 °C.

As for `CC(=NCCO)C1CCC2C3CCC4CC(O)C(N5CCOC(C)C5)CC4(C)C3CCC12C` (stereo not given), the melting point lay within 162 to 165 °C. Compound `O=C(O)Cc1cccc(Oc2cccc(-c3nnc(Nc4ccc(Cl)c(Cl)c4)s3)c2)c1` returned a melting point of 183 to 184 °C. On to `COc1ccc(Cn2c(=O)n(C3CCCCC3)c3cc(Cl)ccc32)c(OC)c1`, for which the melting point worked out at 112 °C. In turn, `O=C1CCC(N2Cc3c(OCc4ccc(CN5CCCOCC5)cc4)cccc3C2=O)C(=O)N1` (stereo not given) gave a melting point of 119 to 121 °C. `O=C(Nc1ccc2ccc(-c3cccc(Br)c3)nc2n1)c1ccccc1` returned a melting point of 204 to 206 °C. Take `C#CC[C@@H](N)c1nc2cccnc2c(=O)n1Nc1ccccc1`: the melting point lay within 206 to 208 °C.

For the compound `CC(C)C(C)(NC(c1ccccc1)c1ccccc1)P(O)O` (stereo not given), the melting point came out at 177 °C. For `CCC(CC)n1nc(-c2ccc(OC)cc2OC)c2cccc(C(F)(F)F)c21`, the melting point was in the range of 115 to 116 °C.

For `Cc1nc(-c2ccccc2)nc(N2CCCC2C(=O)N2CC(C)NC(C)C2)c1C` (stereo not given), the melting point was 160 to 162 °C.

The compound `CCN(CC)CCc1ccc2cc(N)ccc2n1` showed a melting point of 93 to 94 °C. In turn, `O=c1[nH]c2ccccc2n1CCN1CCNCC1` returned a melting point of 123 °C. Regarding `O=C(C1CCc2nc[nH]c2C1)N1CCc2ccccc2C1` (stereo not given), the melting point was in the range of 128 to 130 °C. The same measure for `Cc1cc(-c2nc3c(C)ccnn3c2-c2ccnc(NC(=O)c3ccc(F)cc3)c2)ccc1F`: 243 to 244 °C; for `CCOC(=O)c1ccc2ccc(O)cc2c1`: 155 to 156 °C; for `CCCOC(=O)CCc1cc(Cl)ccc1C(=O)CCCNC(C)=O`: 60 to 62 °C. Take `CCCCCCN1C(=O)c2cscc2Nc2ccccc21`: the melting point was 100 to 102 °C. In the case of `Cc1cnn(C(C)(C)C(=O)N(C)C)c1-c1ccccc1`, the melting point lay in the range of 136 to 139 °C. For `CN(C)CC#CCN1CCNC1=O`, the melting point lay in the range of 83 to 87 °C. For `Cc1cccc(NN)n1`, the melting point was in the range of 54 to 56 °C. The same measure for `Cc1ccc(C(=O)CC(C)C(=O)O)cc1` (stereo not given): 168 to 170 °C; for `NS(=O)(=O)c1cccc2c1COC2`: 153 to 158 °C. `Clc1ccc(C(Br)C(Br)c2ncon2)cc1` (stereo not given) yielded a melting point of 141 to 142 °C. `COCCNC(=O)c1cccc(-c2cccc3cc(Cc4cc(F)cc(F)c4)sc23)c1`: the melting point is 96 to 97 °C.

Turning to `CON=C(C(C)=NN=Cc1ccccc1C(=NOC)C1=NOCCO1)c1ccccc1`, the melting point turned out to be 136 °C. Next, `O=S(=O)(c1ccc(C(F)(F)F)cc1)N1CCCC1c1ccc(F)cc1` (racemic): 85 °C; `CC(=O)NC[C@H]1CN(c2ccc(N3C[C@H]4CN(C(C)=O)C[C@H]4C3)c(F)c2)C(=O)O1`: 168 to 170 °C; `CCc1cccc2oc(C(=O)Nc3ccc(-c4ccc(S(=O)(=O)NC(C(=O)O)C(C)C)cc4)cc3)c(C)c12` (stereo not given): 239 to 241 °C. In turn, `COc1cccc2c1C(c1ccc(Cl)cc1)NC(=O)C2` (stereo not given) returned a melting point of 250 to 251 °C. Compound `Cc1cc(CO)ccn1` returned a melting point of 58 to 59 °C. The same measure for `CC(C)CNC(=O)C(C)(C)N=NC(C)(C)C(=O)NCC(C)C`: 100 °C. For `N#Cc1ncc(OC2SCC(O)C(O)C2O)cc1F` (stereo not given), the melting point is 155 to 156 °C. For `CCN(CC)S(=O)(=O)c1ccccc1S(N)(=O)=O`, the melting point lay within 156 to 159 °C. Next, `COC(=O)c1ccc(Cc2c(Cl)n(C)c3cc(Cl)c(CCNC(=O)N(C)C)cc23)c(OC)c1`: 186 to 189 °C; `O=C(CCCN1CCC(Cc2ccccc2)CC1)c1ccc2c(c1)Cc1cc(C(=O)CCCN3CCC(Cc4ccccc4)CC3)ccc1-2`: 135 to 137 °C. Consider `CCCc1c(OCCCCCOc2ccc(C(C)=O)cc2CCC(=O)O)ccc2c1OCCC2=O`, for which the melting point lay in the range of 115 to 118 °C. The same measure for `Cc1sc(-c2ccccc2)nc1COc1ccc(CCCC2OCCO2)cc1`: 80 to 81 °C; for `CCOC(=O)c1nccn1C1Cc2ccc(Cl)cc2C1=O` (stereo not given): 180 °C; for `O=C1c2ccccc2C(O)N1c1ccc2ncccc2n1` (stereo not given): 208 °C.

For the compound `Cc1cc2c(s1)c(=O)c(C(N)=O)cn2C`, the melting point was 328 to 330 °C. Next, `O=C(Nc1ccc(F)cc1)N(O)Cc1ccc(OCc2csc(-c3ccc(C(F)(F)F)cc3)n2)cc1`: 174 to 176 °C; `CC(C)(CO)NC(=O)c1nn(-c2ccc(F)cc2F)c2c1C1CCC2CC1`: 128 to 131 °C.

Compound `CCCNC(=O)c1cccc(C2(c3ccc(OC(F)F)cc3)N=C(N)N(C)C2=O)c1` (stereo not given) gave a melting point of 93 to 96 °C. In turn, `CCCCCN1C(=O)C(CCC(=O)OC)(NC(=O)C2CCc3ccccc3C2)c2ccccc21` (stereo not given) returned a melting point of 172 to 179 °C. Consider `ONCC1(c2ccc(OCc3ccc4ccccc4n3)cc2)CCCC1`, for which the melting point lay within 116 to 117 °C.

Compound `CC(=O)N(C)c1ccc2c(c1)cc(C(=O)c1ccc(C)cc1)n2C` displayed a melting point of 193 to 195 °C. Compound `COC(=O)c1c(SC)nn(-c2c(Cl)cc(Cl)cc2Cl)c1N` came in with a melting point of 160 to 162 °C. In turn, `NC(=O)[C@@H]1[C@H](Nc2nc(Nc3ccc4c(c3)CCC(NCC(F)F)CC4)ncc2Cl)[C@H]2C=C[C@@H]1C2` (stereo not given in full) displayed a melting point of 128 °C.

As for `O=S1(=O)NCNc2ccc(Br)cc21`, the melting point was 200 to 204 °C. Next, `COCCNC(=O)CC1CN=C(c2cc3cc(Oc4ccc(S(C)(=O)=O)nc4)cc(OC)c3[nH]2)S1` (stereo not given): 175 to 176 °C; `Cc1cc(CC(=O)O)cc(Cc2nc3c(F)c(F)cc(F)c3s2)c1`: 127 to 129 °C. On to `CCCCCCCCCCOc1ccc2cc(C#CC(C)OC(=O)CC)ccc2c1` (stereo not given), for which the melting point is 74 to 75 °C. In the case of `CCCCN(CCCC)CCCOc1ccc(C(=O)c2c(C)oc3c(NS(C)(=O)=O)cccc23)cc1`, the melting point was found to be 135 °C. The same measure for `CC1=C(C(=O)OCCOc2ccccc2)C(c2ccccc2OC(F)F)c2c(ccnc2OC(C)C)N1` (stereo not given): 122 to 124 °C. Next, `CS(=O)(=O)c1ccc(-n2cc(COCc3ccccc3)nc2-c2ccc(Cl)cc2)cc1`: 64 to 65 °C; `CCCCc1nc(Cl)c(CO)n1Cc1ccc(N)cc1`: 101 to 103 °C.

Take `COc1cc(OC)nc(Sc2sccc2NC(=O)C(F)(F)F)n1`: the melting point was 88 to 90 °C. Compound `CON=C(C#CC(=O)c1ccc(Cl)cc1)C(=O)OC` yielded a melting point of 172 to 173 °C. Consider `CCc1nc2c(N)nc3ccccc3c2n1CCCCNC(=O)C1CCCCC1`, for which the melting point was found to be 202 °C. Turning to `CC(=O)Nc1cccc(-n2ncc(=O)n(Cc3ccc(Cl)cc3F)c2=O)c1`, the melting point came out at 184 °C. As for `CC(C)(C)c1cc(C=C2NC(=O)NC2=O)cc(C(C)(C)C)c1O`, the melting point was 251 to 252 °C.

As for `O=C(O)CCCC(=O)c1ccc2c(c1)CCO2`, the melting point is 131 to 133 °C. In turn, `N#Cc1ccc(C(F)(F)F)cc1Sc1ccccc1` returned a melting point of 51 °C.

Compound `Cc1ccc2c(Br)c(Cl)cc([N+](=O)[O-])c2n1` had a melting point of 141 to 142 °C. In turn, `Clc1ccc(-c2cc(C3CCN(CCc4ccccc4)CC3)no2)cc1` gave a melting point of 118 to 120 °C. The compound `CNC(=O)NCc1cncn1C1c2ccccc2CCC1(C)C` (stereo not given) had a melting point of 120 °C. For the compound `N#Cc1ccc(C(=O)N[C@H]2CC[C@H](CCN3CCC(c4cccc5c4CCO5)CC3)CC2)cc1`, the melting point is 230 °C. In turn, `CCCN(CCCCN1CCN(c2ccccc2)CC1)C1CCc2nc(N)sc2C1` (stereo not given) had a melting point of 156 °C. `COc1cc(COc2nn(C)cc2C=O)ccc1OCc1nc(-c2ccco2)oc1C` registered a melting point of 155 to 156 °C. Compound `CCC(=O)N1N=C(c2ccc(N)cc2)c2cc(Br)ccc2CC1C` (stereo not given) had a melting point of 99 to 102 °C. Consider `COC(=O)C=Cc1ccc(NC(C)=O)c(OC)c1`, for which the melting point amounted to 137 °C. `O=C(NC(=O)c1ccc(F)cc1Cl)Nc1ccc(C(F)(F)F)cc1F` gave a melting point of 194 °C. The compound `O=C(Nc1ccc2nc(CN3CCN=C3Cc3ccccc3)ccc2c1)c1ccc(-c2ccc(F)cc2)cc1` registered a melting point of 200 to 202 °C. `CCOCCOC(=O)C(=O)Nc1nc(-c2cc3ccc(O)cc3oc2=O)cs1` showed a melting point of 217 to 218 °C.

The compound `Nc1ccc(C(=O)c2ccccc2F)cc1` displayed a melting point of 128 to 130 °C. `O=S(=O)(CCCc1nc(-c2ccc(F)cc2)c(-c2ccncc2)[nH]1)c1ccccc1` showed a melting point of 109 to 110 °C.

Turning to `CC1CN(c2cccc(F)c2)N=C1N` (stereo not given), the melting point is 78 to 80 °C.
